Experiments:
Assay in all cases: relative viability (nuclei count vs DMSO), 5 days (fraction); higher = more cells survive
[1] = compound: C[C@@H](Oc1cc(-c2cnn(C3CCNCC3)c2)cnc1N)c1c(Cl)ccc(F)c1Cl [Crizotinib] + Nc1ncn([C@H]2C[C@H](O)[C@@H](CO)O2)c(=O)n1 [Decitabine] (partner 2 µM)
Procedure, shortened: (§1)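 Lung cancer cell lines were seeded in 1536-well plates and dosed by pin tool the next day, with either a single drug or a fixed anchor-drug dose combined with five library-drug doses (not always all listed) spaced in √10 steps. Five days later, one step fixed the cells and stained their nuclei (final 0.05% Triton X-100, 1% formaldehyde, 1 ug/ml Hoechst), and nuclei were counted on 4× images. Relative viability is the nuclei count in treated wells divided by the count in vehicle wells, and each value is the median of duplicate plates.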

[2] = compound: O=C(c1cc(Cc2n[nH]c(=O)c3ccccc23)ccc1F)N1CCN(C(=O)C2CC2)CC1 [Olaparib] + COc1cc2c(Oc3ccc(NC(=O)C4(C(=O)Nc5ccc(F)cc5)CC4)cc3F)ccnc2cc1OCCCN1CCOCC1 [Foretinib] (partner 0.25 µM)
Procedure, shortened: as §1

[3] = compound: O=C(c1cc(Cc2n[nH]c(=O)c3ccccc23)ccc1F)N1CCN(C(=O)C2CC2)CC1 [Olaparib] + N=C(N)NC(=N)NCCc1ccccc1 [Phenformin] (partner 250 µM)
Procedure, shortened: as §1

[4] = compound: O=C(c1cc(Cc2n[nH]c(=O)c3ccccc23)ccc1F)N1CCN(C(=O)C2CC2)CC1 [Olaparib] + C[C@]1(O)C[C@@H](c2nc(-c3ccc4ccc(-c5ccccc5)nc4c3)c3c(N)nccn32)C1 [Linsitinib] (partner 1 µM)
Procedure, shortened: as §1

Row | Cell Line | relative viability ([1]; first compound 0.01 µM) | relative viability ([1]; first compound 0.03162 µM) | relative viability ([1]; first compound 0.1 µM) | relative viability ([1]; first compound 0.3162 µM) | relative viability ([1]; first compound 1 µM) | relative viability ([2]; first compound 0.08 µM) | relative viability ([2]; first compound 0.253 µM) | relative viability ([2]; first compound 2.53 µM) | relative viability ([2]; first compound 8 µM) | relative viability ([3]; first compound 0.08 µM) | relative viability ([3]; first compound 0.253 µM) | relative viability ([3]; first compound 2.53 µM) | relative viability ([3]; first compound 8 µM) | relative viability ([4]; first compound 0.08 µM) | relative viability ([4]; first compound 0.253 µM) | relative viability ([4]; first compound 2.53 µM) | relative viability ([4]; first compound 8 µM)
1 | NCI-H1975 | 0.404 | 0.322 | 0.466 | 0.31 | 0.39 | 1.04 | 0.929 | 0.98 | 0.908 | 0.437 | 0.385 | 0.414 | 0.408 | 1.02 | 0.95 | 0.9 | 0.895
2 | NCI-H1993 | 0.515 | 0.525 | 0.608 | 0.606 | 0.602 | 0.906 | 0.794 | 1.04 | 0.931 | 0.529 | 0.511 | 0.501 | 0.447 | 0.745 | 0.749 | 0.831 | 0.78
3 | NCI-H2009 | 0.382 | 0.372 | 0.348 | 0.387 | 0.392 | 1.35 | 1.16 | 1.17 | 1.06 | 0.557 | 0.49 | 0.438 | 0.386 | 1.28 | 1.17 | 1.09 | 0.928
4 | NCI-H2023 | 0.186 | 0.236 | 0.272 | 0.202 | 0.255 | 0.931 | 0.733 | 0.775 | 0.733 | 0.466 | 0.36 | 0.391 | 0.359 | 0.754 | 0.608 | 0.535 | 0.469
5 | NCI-H2085 | 0.565 | 0.518 | 0.554 | 0.54 | 0.595 | 1.1 | 0.831 | 0.916 | 0.886 | 0.837 | 0.69 | 0.682 | 0.625 | 0.982 | 0.868 | 0.819 | 0.677
6 | NCI-H2087 | 0.259 | 0.247 | 0.252 | 0.194 | 0.274 | 1.08 | 0.921 | 0.949 | 0.736 | 0.633 | 0.42 | 0.436 | 0.383 | 0.984 | 0.912 | 0.83 | 0.685
7 | NCI-H2126 | 0.51 | 0.568 | 0.579 | 0.565 | 0.591 | 1.06 | 1.15 | 1.36 | 1.18 | 0.615 | 0.549 | 0.506 | 0.588 | 0.808 | 0.641 | 0.698 | 0.7
8 | NCI-H2347 | 0.69 | 0.616 | 0.674 | 0.608 | 0.661 | 0.902 | 0.945 | 0.786 | 0.977 | 0.458 | 0.339 | 0.313 | 0.347 | 1.03 | 0.879 | 0.823 | 0.816
9 | NCI-H2405 | 0.717 | 0.698 | 0.717 | 0.727 | 0.734 | 1.11 | 1.01 | 0.946 | 0.956 | 0.432 | 0.373 | 0.388 | 0.426 | 1.15 | 0.93 | 0.915 | 0.851
10 | NCI-H3122 | 0.316 | 0.408 | 0.456 | 0.409 | 0.453 | 0.895 | 0.946 | 0.873 | 0.781 | 0.425 | 0.362 | 0.344 | 0.306 | 0.95 | 1.04 | 0.954 | 0.899
11 | PC-3 [JPC-3] | 0.794 | 0.809 | 0.839 | – | 0.865 | 1.03 | 0.948 | 0.985 | 0.948 | 0.486 | 0.458 | 0.481 | 0.423 | 0.93 | 0.914 | 0.962 | 0.908
12 | PC-14 | 0.182 | 0.248 | 0.225 | 0.244 | 0.248 | 1.06 | 0.892 | 0.903 | 0.684 | 0.79 | 0.384 | 0.609 | 0.519 | 1.02 | 0.856 | 0.859 | 0.815
13 | RERF-LC-KJ | 0.737 | 0.635 | 0.569 | 0.585 | 0.7 | 0.922 | 0.797 | 1 | 0.919 | 0.406 | 0.465 | 0.433 | 0.51 | 0.939 | 0.903 | 0.948 | 0.902
14 | SK-LU-1 | 0.648 | 0.715 | 0.634 | 0.599 | 0.63 | 0.91 | 0.657 | 0.748 | 0.526 | 0.612 | 0.473 | 0.569 | 0.365 | 1.34 | 0.998 | 1.02 | 0.622
15 | SK-MES-1 | 0.318 | 0.378 | 0.367 | 0.388 | 0.335 | 1.05 | 0.861 | 0.907 | 0.889 | 0.745 | 0.56 | 0.628 | 0.484 | 1.14 | 0.996 | 1.05 | 0.796
16 | SW 1573 | 0.431 | 0.529 | 0.483 | 0.404 | 0.456 | 1.01 | 0.971 | 0.737 | 0.629 | 0.444 | 0.373 | 0.266 | 0.258 | 0.893 | 0.889 | 0.661 | 0.73
17 | UMC-11 | 0.694 | 0.593 | 0.521 | – | 0.643 | 0.893 | 0.959 | 0.784 | 0.484 | 0.36 | 0.31 | 0.294 | 0.229 | 1.03 | 0.974 | 0.798 | 0.504

Source: the supplement of paper PMC10307832
